# Experimental data: patent US7655465B2, “Methods for ex vivo propagation of somatic hair follicle stem cells” (Massachusetts Institute of Technology, priority 2004, dated 2010)
# How the values were obtained:
# [1] = tested on: mouse whisker follicle epithelial cells; experiment: Outgrowth and cell counts of purine-supplemented mouse whisker hair follicle cultures; assay type: cell-based; details: 400 uM purine
# Text: Intact mouse whisker hair follicles were dissected from the skin under sterile conditions. The hair shaft was resected at its point of exit from the follicle. The intact follicle was then digested with trypsin, repeatedly washed, and filtered with a nylon mesh to remove external cells that adhere to the follicle capsule. The follicle was then opened with a single longitudinal incision and place in culture medium supplemented with 10% dialyzed fetal bovine serum, epidermal growth factor, and one of three different purine nucleoside metabolites (Hypoxyanthine, xanthosine, or xanthine) each supplemented to 400 uM.
# Confluent primary cultures were transferred into to 25-cm^2 flasks. Seven days after this transfer, cell counts were performed before transferring cultures to 75-cm^2 flasks.
# [2] = tested on: hair follicle epithelial cell cultures; experiment: Limiting dilution cloning of hair follicle epithelial cells with and without purine supplementation; assay type: cell-based, mouse; details: for Cell clone efficiency, Cloning Condition Purine-supplemented (positive wells/total wells) / Cell clone efficiency, Cloning Condition Purine-free (positive wells/total wells): limiting dilution in 96 well plates; for Cell clone efficiency, Cloning Condition Purine-supplemented (positive wells/total wells): cloned in the presence of the purine used for initial outgrowth (400 uM); for Cell clone efficiency, Cloning Condition Purine-free (positive wells/total wells): cultures grown out with 400 uM purine, cloned without purine
# Text: After outgrowth of the follicle epithelial cells, cultures were trypsinized to harvest cells for secondary culture. […] In this manner, purine metabolite-dependent clonal expansion was verified. […] Seventeen Xn-derived clones were transferred to 24-well plates, and 15 survived expansion to full scale cultures for cryo-preservation.
# [3] = tested on: adult stem cell-enriched populations from skeletal muscle, pancreas or small intestinal epithelium of XPRT-transgenic mice; experiment: Proliferation of adult stem cell-enriched populations explanted from XPRT-transgenic mice in xanthine-supplemented medium; assay type: cell-based, mouse; details: cells explanted from XPRT-transgenic mice
# Text: We have generated transgenic mice ubiquitously expressing the xanthine phosphoribosyltransferase (XPRT) gene. We used the gene encoding for XPRT from the protozoan Leismania donovani. The XPRT enzyme can convert Xanthine into xanthosine monophosphate, the critical precursor for cellular guanine nucleotides. This enzyme has no mammalian counterpart and its substrate can enter the cell via ubiquitously expressed nucleobase transporters. Therefore, we can control the kinetics of adult stem cells expressing XPRT by supplementing with or depriving the culture medium of xanthine. In the presence of xanthine, XPRT-expressing cells increase their cellular level of guanine nucleotides independently of their normal endogenous pathway involving the conversion of inosine monophosphate to xanthosine monophosphate by the enzyme inosine monophosphate dehydrogenase.
# We have generated transgenic mice ubiquitously expressing the XPRT gene under the control of the chicken β-actin/CMV enhancer. […] We have also shown that the culture of pancreatic cells from one of the transgenic lines gives rise to clusters of small cells with large nuclei. This feature is typical of ductal cells, from which a subset is believed to correspond to the pancreatic adult stem cells. […]
Compound,Promotion of enhanced growth of mouse whisker follicle epithelial cells (comparison of purines) [1],Order of reaching confluency of primary cultures ([1]; three hair follicles in one well of a 24-well plate),"Yield of cell clones and dependence on the purine ([2]; limiting dilution cloning, summary of Table 1)","Cell clone efficiency, Cloning Condition Purine-supplemented (positive wells/total wells) [2]","Cell clone efficiency, Cloning Condition Purine-free (positive wells/total wells) [2]",Proliferation in xanthine-supplemented culture medium [3]
"O=c1[nH]c(=O)c2[nH]cnc2[nH]1 [Xn, xanthine]",worked the best,reached confluency first,significant number of cell clones with a marked dependence on Xn,50/480,4/96,enhanced proliferation
"O=c1[nH]cnc2nc[nH]c12 [Hx, hypoxanthine]",,,,6/480,0/96,
"O=c1[nH]c(=O)c2ncn([C@@H]3O[C@H](CO)[C@@H](O)[C@H]3O)c2[nH]1 [Xs, xanthosine]",,,,1/480,0/96,
